Results as given in ChEMBL document CHEMBL4627246, “Pyroglutamide-Based P2X7 Receptor Antagonists Targeting Inflammatory Bowel Disease” (J Med Chem, 2020).

Key:
Format in all cases: cell-based
CAKI-1 = experiment: Growth inhibition of human Caki1 cells assessed as growth percentage at 10 uM incubated for 48 hrs by sulforhodamine B assay; settings: caki-1, 48 h
HOP-62 = experiment: Cytotoxicity against human HOP62 cells assessed as effect on cell growth at 10 uM incubated for 48 hrs by sulforhodamine B assay; settings: hop-62, 48 h
SK-OV-3 = experiment: Cytotoxicity against human SKOV3 cells assessed as effect on cell growth at 10 uM incubated for 48 hrs by sulforhodamine B assay; settings: sk-ov-3, 48 h
SNB-19 = experiment: Cytotoxicity against human SNB19 cells assessed as effect on cell growth at 10 uM incubated for 48 hrs by sulforhodamine B assay; settings: snb-19, 48 h
RXF 393 = experiment: Cytotoxicity against human RXF393 cells assessed as effect on cell growth at 10 uM incubated for 48 hrs by sulforhodamine B assay; settings: rxf 393, 48 h
UO-31 = experiment: Cytotoxicity against human UO31 cells assessed as effect on cell growth at 10 uM incubated for 48 hrs by sulforhodamine B assay; settings: uo-31, 48 h
SK-MEL-2 = experiment: Cytotoxicity against human SK-MEL-2 cells assessed as effect on cell growth at 10 uM incubated for 48 hrs by sulforhodamine B assay; settings: sk-mel-2, 48 h
MCF7 = experiment: Cytotoxicity against human MCF7 cells assessed as effect on cell growth at 10 uM incubated for 48 hrs by sulforhodamine B assay; settings: mcf7, 48 h
MDA-MB-435 = experiment: Cytotoxicity against human MDA-MB-435 cells assessed as effect on cell growth at 10 uM incubated for 48 hrs by sulforhodamine B assay; settings: mda-mb-435, 48 h
MOLT-4 = experiment: Cytotoxicity against human MOLT4 cells assessed as effect on cell growth at 10 uM incubated for 48 hrs by sulforhodamine B assay; settings: molt-4, 48 h
UACC-62 = experiment: Cytotoxicity against human UACC62 cells assessed as effect on cell growth at 10 uM incubated for 48 hrs by sulforhodamine B assay; settings: uacc-62, 48 h
K562 = experiment: Cytotoxicity against human K562 cells assessed as effect on cell growth at 10 uM incubated for 48 hrs by sulforhodamine B assay; settings: k562, 48 h
SK-MEL-5 = experiment: Cytotoxicity against human SK-MEL-5 cells assessed as effect on cell growth at 10 uM incubated for 48 hrs by sulforhodamine B assay; settings: sk-mel-5, 48 h
M14 = experiment: Cytotoxicity against human M14 cells assessed as effect on cell growth at 10 uM incubated for 48 hrs by sulforhodamine B assay; settings: m14, 48 h
DU-145 = experiment: Cytotoxicity against human DU145 cells assessed as effect on cell growth at 10 uM incubated for 48 hrs by sulforhodamine B assay; settings: du-145, 48 h
TK-10 = experiment: Cytotoxicity against human TK10 cells assessed as effect on cell growth at 10 uM incubated for 48 hrs by sulforhodamine B assay; settings: tk-10, 48 h
HCT-15 = experiment: Cytotoxicity against human HCT15 cells assessed as effect on cell growth at 10 uM incubated for 48 hrs by sulforhodamine B assay; settings: hct-15, 48 h
Hs-578T = experiment: Cytotoxicity against human Hs 578T cells assessed as effect on cell growth at 10 uM incubated for 48 hrs by sulforhodamine B assay
EKVX = experiment: Cytotoxicity against human EKVX cells assessed as effect on cell growth at 10 uM incubated for 48 hrs by sulforhodamine B assay
NCI-H522 = experiment: Cytotoxicity against human NCI-H522 cells assessed as effect on cell growth at 10 uM incubated for 48 hrs by sulforhodamine B assay; settings: nci-h522, 48 h

Measured: Activity

O=C(NCC1CCCCC1)[C@@H]1CCC(=O)N1c1ccccc1
Non-Toxic: all assays above

CN(C)/C=C1\C[C@H]2C(=O)N(Cc3ccc(Cl)cc3Cl)C(N(C)C)N2C1=O (stereo not given in full)
Non-Toxic: all assays above

O=C(NCc1ccccc1)[C@@H]1CCC(=O)N1Cc1ccc(Cl)cc1Cl
Non-Toxic: all assays above

COc1ccc(NC(=O)[C@@H]2CCC(=O)N2)cc1OC
Non-Toxic: all assays above
